This is an account of results in paper PMC10064330, “Reversible Dual-Covalent Molecular Locking of the 14-3-3/ERRγ Protein–Protein Interaction as a Molecular Glue Drug Discovery Approach” (Journal of the American Chemical Society, 2023).

In this assay the target is T1, 14-3-3γ/ERRγ complex (Homo sapiens, UniProt P61981+P62508).
T1 construct: made in house; host or cells: E. coli NiCo21 (DE3)
Nature of the assay: FA compound titration in HEK293 cell lysate. Type of assay: binding. Conditions: 2 mg mL^–1 HEK293 cell lysate, 5 μM 14-3-3γ, 100 nM ERRγ peptide; read-out: half-maximal complex concentration (CC50). How it is done: The cell represents a complex biochemical environment composed of a high reducing potential, a pool of potential nucleophiles, and competing 14-3-3 interaction partners. To investigate molecular lock-induced complex formation in a reactive environment, we first investigated binary 14-3-3/ERRγ formation in the HEK293 cell lysate. Here, the HEK293 cell lysate was titrated to the preformed 14-3-3γ/ERRγ complex in an FA assay and incubated overnight (Figure S25a–c). […] Next, we investigated molecular lock 5-induced complex formation (Figures S25 and S26). […] Moreover, early observed cell lysate-induced abolishment of the 14-3-3γ/ERRγ complex formation was almost completely recovered upon addition of 5, to similar complex concentrations to that in the absence of the lysate. […]
Figure S25. […] (d -e) Fluorescence anisotropy studies of compound 5 (right) titrations or DMSO as negative control (left) to a preformed complex of 14 -3-3γ (5 µM, 0.16 mg/mL) and fluorescein labelled ERRγ peptide (100 nM) at various concentrations HEK293 cell lysate (up to 2 mg/mL). […]
Figure S26. […] Fluorescence anisotropy studies of compound 5 titrations (or DMSO as negative control) to a preformed complex of 14-3-3γ (5 µM) and fluorescein labelled ERRγ peptide (100 nM). Assay is performed in presence of various concentrations HEK293 cell lysate (up to 2 mg/mL) and is measured over time (every hour for 12 hours). […]

T1 sequence (P61981 whole entry, other chains not shown): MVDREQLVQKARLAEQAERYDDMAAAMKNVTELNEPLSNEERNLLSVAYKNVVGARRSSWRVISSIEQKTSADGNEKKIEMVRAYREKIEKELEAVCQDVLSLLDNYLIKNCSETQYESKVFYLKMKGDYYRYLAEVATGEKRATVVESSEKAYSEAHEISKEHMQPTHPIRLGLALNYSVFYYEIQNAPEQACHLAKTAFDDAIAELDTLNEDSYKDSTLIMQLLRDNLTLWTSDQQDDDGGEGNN

Consider `CN(C)CCSSCCN(C)C(=O)c1ccc(C=O)c(F)c1` [compound 5], for which the CC50 worked out at 240 µM.
